# According to patent EP0487382A1, “Use of buflomedil for the protection of the myocardium by coronary angioplasty” (LABORATOIRE L. LAFON, priority 1990, dated 1992):
# Legend:
# [1] = tested on: chiens; assay: Coronary balloon angioplasty occlusion (15 min) and reperfusion in anaesthetised dogs, first series; assay type: in vivo
# Method: (§1) 1 - On a réalisé des essais comparatifs chez des chiens auxquels on a administré par voie intraveineuse en 15 minutes : • soit du buflomédil (chlorhydrate) à la dose de 10 mg/kg; • soit un placebo.
# Le protocole opératoire était le suivant :
# (§2) les chiens ont reçu une prémédication consistant en 1,0 mg par kg de sulfate de morphine après une nuit de diète ainsi que 325 mg d'aspirine par voie orale.
# (§3) Les chiens ont été anesthésiés avec 12,5 mg/kg de thiopental et 72 mg/kg de chloralose par voie intraveineuse. On met en place un cathéter au niveau de l'artère fémorale pour la mesure de la pression artérielle et une canule sur la veine fémorale pour l'administration du produit à tester. L'artère carotide gauche reçoit une canule pour la mise en place du cathéter d'angioplastie, tandis que l'on met en place un cathéter au niveau du ventricule gauche via l'artère fémorale contralatérale.
# Les animaux sont alors héparinisés avec 500 unités U.I. par kg par voie I.V. On procède alors à l'administration du produit à tester ou du placebo à raison, pour le buflomédil, de 10 mg par mn. On administre ensuite de la lidocaïne par voie I.V. à raison de 1 mg/kg sous forme de bolus, puis par perfusion à raison de 1 mg par mn. […]
# [2] = tested on: chiens; assay: Coronary balloon occlusion (15 min) with follow-up of reperfusion in dogs, second series; assay type: in vivo; settings: 10 mg/kg i.v.
# Method: as §1, §2, §3
# Les animaux sont alors héparinisés avec 500 unités U.I. par kg par voie I.V. On procède alors à l'administration du produit à tester ou du placebo à raison, pour le buflomédil, de 10 mg par mn. On administre ensuite de la lidocaïne par voie I.V. à raison de 1 mg/kg sous forme de bolus, puis par perfusion à raison de 1 mg par mn.
# 30 mn après la fin de la perfusion, on met en place un ballonnet d'angioplastie de 2,5-3,5 mm choisi en fonction de la taille des artères coronaires dans l'artère coronaire descendante antérieure gauche. Le ballon a été gonflé à une pression de 4.10⁵ Pa pendant 15 mn.
# 2 - Dans une deuxième série d'essais comparatifs, on a utilisé le même mode opératoire et les mêmes produits (buflomédil chlorhydrate à la dose de 10 mg/kg d'une part et placebo d'autre part) et on a suivi la reperfusion après 15 minutes d'occlusion avec un ballonnet.
# [3] = at the end of the occlusion, versus placebo
structure (smiles),measurement,setting,value
"COc1cc(OC)c(C(=O)CCCN2CCCC2)c(OC)c1 [buflomédil, 4-(1-pyrrolidinyl)-1-(2,4,6-triméthoxyphényl)-1-butanone]",flux sanguins tissulaires au niveau du myocarde,"[1]; 10 mg/kg i.v., measured during ischaemia in the ischaemic regions, versus placebo (Figure)",plus élevés
same,fibrillation ventriculaire lors de la reperfusion,"[1]; buflomédil (chlorhydrate) 10 mg/kg i.v. over 15 min, 15 min balloon occlusion, placebo: 4 cas sur 10",n'a pas observé de fibrillation ventriculaire
same,fraction d'éjection,"[2]; 30 minutes after reperfusion, placebo 69 %",89 % de la valeur normale du groupe
same,fraction d'éjection,"[2]; 60 minutes after reperfusion, placebo 74 %",95%
same,zone de dysfonctionnement,"[2]; after reperfusion, versus placebo",diminution
same,fraction d'éjection,[2]; [3],n'a pas observé à la fin de l'occlusion de différence
same,perfusion sanguine transmurale,[2]; [3],n'a pas observé à la fin de l'occlusion de différence
same,flux pendant la reperfusion,"[2]; during reperfusion, versus placebo",flux accru
